In article PMC8760490, “Discovery of novel furanylbenzamide inhibitors that target oncogenic tyrosine phosphatase SHP2 in leukemia cells” (The Journal of Biological Chemistry, 2021):

Test system: MOLM-13-Cas9-mCherry cells with SHP2 KO
Test: Cell viability, MOLM-13 SHP2 CRISPR–Cas9 KO
Type: cell-based
Conditions: 72 h, 30 μM to 58 nM
Method: Finally, we evaluated the selectivity of our top two compounds, SBI-2130 and SBI-4668, on MOLM-13 AML cells in which SHP2 was depleted using CRISPR–Cas9 KO. High-efficiency Cas9-editing MOLM-13 cells were generated by transducing MOLM-13 cells with a Cas9 lentiviral construct. Stable clones were tested for editing efficiency by performing tracking of indels by decomposition analysis ([45]), and these MOLM-13-Cas9 cells were transduced with a lentiviral construct containing an AAVS1 single-guide RNA (sgRNA) and an mCherry reporter for bulk sorting of cells with successful AAVS1 editing. […] Cells were treated with inhibitors at various concentrations (ranging from 30 μM to 58 nM) or vehicle control (DMSO) for 72 h, before cell viability was assessed. […]
For SHP2 KO, dual sgRNAs targeting SHP2 were cloned in the pLentiGuide puro vector (Addgene plasmid no. 52963 from Dr Feng Zhang) using a published protocol ([50]). […] SHP2 KO was evaluated by immunoblotting. […] For SHP2 KO, MOLM-13-Cas9-mCherry cells were seeded in nontreated 6-well plates (2 × 10^6 cells/well in 2.5 ml), with cell numbers determined by trypan blue using the Countess Cell Counter (Thermo Scientific). […] Cell viability was assessed using the ATP-depletion assay CellTiter-Glo as described previously, and data were analyzed using GraphPad Prism software.

| SMILES | effect on viability of MOLM-13-Cas9-mCherry SHP2 KO cells |
| --- | --- |
| Nc1ccc(NC(=O)c2cc(-c3ccc(/C=C4\Sc5ccccc5C4=O)o3)ccc2O)cc1 [SBI-2130, (Z)-N-(4-Aminophenyl)-2-hydroxy-5-(5-((3-oxobenzo[b]thiophen-2(3H)-ylidene)methyl)furan-2-yl)benzamide] | either completely abrogated or greatly reduced |
| O=C(Nc1ccccc1)c1cc(-c2ccc(/C=C3\Sc4ccccc4C3=O)o2)ccc1O [SBI-4668, (Z)-2-Hydroxy-5-(5-((3-oxobenzo[b]thiophen-2(3H)-ylidene)methyl)furan-2-yl)-N-phenylbenzamide] | either completely abrogated or greatly reduced |
